Literature values in patent EP1587517B1, “ANTI-PROTOZOAL COMPOSITIONS COMPRISING DICLAZURIL” (JANSSEN PHARMACEUTICA N.V., priority 2003, dated 2004).
Values after ≈ are worked out from the molar mass of the structure shown. Where two headings read alike, the source gives them in different places.

solubility (N,N-dimethylformamide): 32.6 g/L (≈ 80 mM)
solubility (dimethyl sulphoxide): 48 g/L (≈ 118 mM)
solubility (tetrahydrofuran): 8.2 g/L (≈ 20.1 mM)
saturation concentrations in water (water): below 1 µg/L
SMILES: N#CC(c1ccc(Cl)cc1)c1c(Cl)cc(-n2ncc(=O)[nH]c2=O)cc1Cl (stereo not shown) [diclazuril]
